In patent US20230391760A1, “HETEROCYCLIC GLP-1 AGONISTS” (Gasherbrum Bio, Inc., priority 2020, published 2023) one finds EC50 data, which are given here for 16 compounds.

Chain of GLP-1 Receptor (P43220 24-463, species assumed): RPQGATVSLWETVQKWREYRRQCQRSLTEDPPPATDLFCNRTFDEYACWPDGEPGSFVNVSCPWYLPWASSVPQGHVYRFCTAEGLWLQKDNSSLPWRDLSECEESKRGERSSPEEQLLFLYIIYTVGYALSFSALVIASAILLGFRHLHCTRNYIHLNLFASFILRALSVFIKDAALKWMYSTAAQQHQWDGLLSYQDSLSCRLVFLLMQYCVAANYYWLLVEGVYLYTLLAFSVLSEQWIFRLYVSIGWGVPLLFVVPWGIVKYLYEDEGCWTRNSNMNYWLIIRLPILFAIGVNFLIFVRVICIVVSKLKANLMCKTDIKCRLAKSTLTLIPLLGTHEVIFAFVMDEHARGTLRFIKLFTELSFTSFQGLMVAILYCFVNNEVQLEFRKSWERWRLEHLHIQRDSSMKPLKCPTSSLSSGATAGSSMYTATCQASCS

The target in the experiment is GLP-1 Receptor (Homo sapiens, UniProt P43220). As to the kind of experiment: GLP-1R agonist cAMP stimulation assay (HEK293/GLP1R/CRE-LUC cells, cAMP dynamic 2 Kit). The class given is cell-based. To be noted: HEK293/CRE-Luc cell line stably expressing the GLP-1 Receptor, 30 min at 37° C. In outline:
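HEK293 cells stably expressing human GLP-1R with CRE-luciferase, 1000 cells/well in DPBS with 0.5 mM IBMX and 0.1% BSA, treated with compound in 1/2-log serial dilution for 30 min at 37 °C. cAMP then detected by HTRF (cAMP-d2 plus anti-cAMP cryptate), 1 h at room temperature in the dark.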
Take `Cc1nc(-c2noc(=O)[nH]2)cc2nc(CN3CCC(c4cccc5c4O[C@@](C)(c4ccc(Cl)cc4F)O5)CC3)n(C[C@@H]3CCO3)c12` [Compound 434a, 3-[2-({4-[(2S)-2-(4-chloro-2-fluorophenyl)-2-methyl-2H-1,3-benzodioxol-4-yl]piperidin-1-yl}methyl)-4-methyl-3-{[(2S)-oxetan-2-yl]methyl}-3H-imidazo[4,5-c]pyridin-6-yl]-4,5-dihydro-1,2,4-oxadiazol-5-one]: the concentration giving a half-maximal response (EC50) was 0.23 nM. For `O=C(Nc1ccc2c(c1)nc(CN1CCC(c3cccc(OCc4ccc(Cl)cc4F)n3)CC1)n2C[C@@H]1CCO1)C1CCCOC1` (single isomer, unassigned) [Compound 154c], the midpoint of the response, the EC50, lay at 1.5 nM.

Take `O=c1[nH]c(-c2cc3nc(CN4CC=C(c5cccc(OCc6ccc(Cl)cc6F)c5)CC4)n(C[C@@H]4CCO4)c3cn2)no1` [Compound 308a, 3-{2-[(4-{3-[(4-chloro-2-fluorophenyl)methoxy]phenyl}-1,2,3,6-tetrahydropyridin-1-yl)methyl]-3-{[(2S)-oxetan-2-yl]methyl}-3H-imidazo[4,5-c]pyridin-6-yl}-4,5-dihydro-1,2,4-oxadiazol-5-one]: the EC50 was 0.5 nM. Compared with the last compound, the EC50 is about 3-fold lower. `CC1(c2ccc(C#N)cc2F)Oc2cccc(C3CCN(Cc4nc5cc(-c6noc(=O)[nH]6)ncc5n4C[C@@H]4CCO4)CC3)c2O1` (stereo partly drawn) [Compound 341a, 3-fluoro-4-(2-methyl-4-{1-[(3-{[(2S)-oxetan-2-yl]methyl}-6-(5-oxo-4,5-dihydro-1,2,4-oxadiazol-3-yl)-3H-imidazo[4,5-c]pyridin-2-yl)methyl]piperidin-4-yl}-2H-1,3-benzodioxol-2-yl)benzonitrile] came in with a concentration for a half-maximal effect (EC50) of 0.026 nM. In the case of `O=c1[nH]c(-c2cc3nc(CN4CCC(c5ccc(F)c(OCc6ccc(Cl)cc6F)n5)CC4)n(C[C@@H]4CCO4)c3cn2)no1` [Compound 438a, 3-{2-[(4-{6-[(4-chloro-2-fluorophenyl)methoxy]-5-fluoropyridin-2-yl}piperidin-1-yl)methyl]-3-{[(2S)-oxetan-2-yl]methyl}-3H-imidazo[4,5-c]pyridin-6-yl}-4,5-dihydro-1,2,4-oxadiazol-5-one], the EC50 was found to be 0.026 nM. In other words, the picomolar range. `CC1(c2ccc(Cl)cc2)Oc2cccc(C3CCN(Cc4nc5cc(-c6noc(=O)[nH]6)ncc5n4C[C@@H]4CCO4)CC3)c2O1` (stereo partly drawn) [Compound 347a, 3-[2-({4-[2-(4-chlorophenyl)-2-methyl-2H-1,3-benzodioxol-4-yl]piperidin-1-yl}methyl)-3-{[(2S)-oxetan-2-yl]methyl}-3H-imidazo[4,5-c]pyridin-6-yl]-4,5-dihydro-1,2,4-oxadiazol-5-one] yielded an EC50 of 0.022 nM.

In turn, `N#Cc1ccc(COc2cccc(C3=CCN(Cc4nc5cc(-c6noc(=O)[nH]6)cnc5n4C[C@@H]4CCO4)CC3)n2)c(F)c1` [Compound 322a, 3-fluoro-4-[({1′-[(3-{[(2S)-oxetan-2-yl]methyl}-6-(5-oxo-4,5-dihydro-1,2,4-oxadiazol-3-yl)-3H-imidazo[4,5-b]pyridin-2-yl)methyl]-1′,2′,3′,6′-tetrahydro-[2,4′-bipyridin]-6-yl}oxy)methyl]benzonitrile] yielded an EC50 of 0.078 nM. For `CC1(c2ccc(Cl)cc2F)Oc2cccc(C3CCN(Cc4nc5cc(-c6nnc(C(F)(F)F)[nH]6)cnc5n4C[C@@H]4CCO4)CC3)c2O1` (single isomer, unassigned) [Compound 224c] the value was 0.014 nM. Compound `CC1(c2ccc(Cl)cn2)Oc2cccc(C3=CCN(Cc4nc5cc(-c6nnc(C7CC7)[nH]6)cnc5n4C[C@@H]4CCO4)CC3)c2O1` (stereo partly drawn) [Compound 416a, 5-chloro-2-[4-(1-{[6-(5-cyclopropyl-4H-1,2,4-triazol-3-yl)-3-{[(2S)-oxetan-2-yl]methyl}-3H-imidazo[4,5-b]pyridin-2-yl]methyl}-1,2,3,6-tetrahydropyridin-4-yl)-2-methyl-2H-1,3-benzodioxol-2-yl]pyridine] showed an EC50 of 14 nM. On to `CC1(c2ccc(F)cc2Cl)Oc2cccc(C3CCN(Cc4nc5cc(-c6nnc(C(F)(F)F)[nH]6)ccc5n4C[C@@H]4CCO4)CC3)c2O1` (stereo partly drawn) [Compound 404a, 2-({4-[2-(2-chloro-4-fluorophenyl)-2-methyl-2H-1,3-benzodioxol-4-yl]piperidin-1-yl}methyl)-1-{[(2S)-oxetan-2-yl]methyl}-5-[5-(trifluoromethyl)-4H-1,2,4-triazol-3-yl]-1H-1,3-benzodiazole], for which a half-maximal response (EC50) required 0.045 nM. The compound `C[C@]1(c2ccc(C#N)cc2F)Oc2cccc(C3CCN(Cc4nc5cc(-c6n[nH]c(C(F)(F)F)n6)ncc5n4C[C@@H]4CCO4)CC3)c2O1` [Compound 342a, 3-fluoro-4-[(2S)-2-methyl-4-{1-[(3-{[(2S)-oxetan-2-yl]methyl}-6-[5-(trifluoromethyl)-4H-1,2,4-triazol-3-yl]-3H-imidazo[4,5-c]pyridin-2-yl)methyl]piperidin-4-yl}-2H-1,3-benzodioxol-2-yl]benzonitrile] had an EC50 of 0.0064 nM. `Fc1cc(Cl)ccc1COc1cc(C2CCN(Cc3nc4cc(-c5nnc(C(F)(F)F)[nH]5)nnc4n3C[C@@H]3CCO3)CC2)ccc1F` [Compound 520a, 4-{3-[(4-chloro-2-fluorophenyl)methoxy]-4-fluorophenyl}-1-[(7-{[(2S)-oxetan-2-yl]methyl}-3-[5-(trifluoromethyl)-4H-1,2,4-triazol-3-yl]-7H-imidazo[4,5-c]pyridazin-6-yl)methyl]piperidine] yielded a half-maximal effective concentration (EC50) of 0.34 nM. Turning to `CO[C@H](C)Cn1c(CN2CCC(c3cccc4c3O[C@@](C)(c3ccc(Cl)cc3F)O4)CC2)nc2cc(-c3nnc(C(F)(F)F)[nH]3)nnc21` [Compound 452a, 4-[(2S)-2-(4-chloro-2-fluorophenyl)-2-methyl-2H-1,3-benzodioxol-4-yl]-1-({7-[(2R)-2-methoxypropyl]-3-[5-(trifluoromethyl)-4H-1,2,4-triazol-3-yl]-7H-imidazo[4,5-c]pyridazin-6-yl}methyl)piperidine], the concentration giving a half-maximal response (EC50) amounted to 0.14 nM.

Regarding `CC1(c2ccc(Cl)cc2F)Oc2cccc(C3CCN(Cc4nc5cc(C(=O)O)ccc5n4C[C@@H]4CCO4)CC3)c2O1` (stereo partly drawn) [Compound 161a, 2-((4-(2-(4-chloro-2-fluorophenyl)-2-methylbenzo[d][1,3]dioxol-4-yl)piperidin-1-yl)methyl)-1-(((S)-oxetan-2-yl)methyl)-1H-benzo[d]imidazole-5-carboxylic acid], the 50% effective concentration (EC50) came out at 0.51 nM.

`O=C(Nc1ccc2c(c1)nc(CN1CCC(c3cccc(OCc4ccc(Cl)cc4F)n3)CC1)n2C[C@@H]1CCO1)C1CCCCO1` (stereo partly drawn) [Compound 155a, N-{2-[(4-{6-[(4-chloro-2-fluorophenyl)methoxy]pyridin-2-yl}piperidin-1-yl)methyl]-1-{[(2S)-oxetan-2-yl]methyl}-1H-1,3-benzodiazol-5-yl}oxane-2-carboxamide] showed an EC50 of 1 nM. This EC50 is about 2-fold higher than that of the compound before. As to `O=c1[nH]c(-c2cnc3c(c2)nc(CN2CCC(c4cccc(OCc5ccc(Cl)cc5F)n4)CC2)n3C[C@@H]2CCO2)no1` [Compound 328a, 3-{2-[(4-{6-[(4-chloro-2-fluorophenyl)methoxy]pyridin-2-yl}piperidin-1-yl)methyl]-3-{[(2S)-oxetan-2-yl]methyl}-3H-imidazo[4,5-b]pyridin-6-yl}-4,5-dihydro-1,2,4-oxadiazol-5-one], the 50% effective concentration (EC50) was determined as 0.37 nM.

In general, EC50 refers to the midpoint of the concentration-response curve. Low values mean a more potent agent, high ones a less potent agent.
